In patent US10149907B2, “Combinations of a photosensitizer with a hydrogen sulfide donor, thioredoxin inhibitor or nitroxide for use in photodynamic therapy” (UNIVERSITY OF EXETER, priority 2014, dated 2018):
Where “and” joins values, the source holds several entries; their conditions need not be identical. Equal entries are not always repeated. Where two headings read alike, the source gives them in different places.

How the values were obtained:
A431 cells [1] = assay: Photodynamic cell killing in the presence of inhibitors of the thioredoxin antioxidant system or nitroxides (annexin V-FITC/propidium iodide flow cytometry); format: cell-based, human
A431 cells [2] = test system: A431 cells
Outline: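 In the PDT set-up, cells held at 2% O2 got 1 mM MAL with or without compound for 3 h, then 3 h recovery under 2% O2. Compound-alone cytotoxicity used cells seeded at 3×10^5/well for 24 h, treated for the relevant time.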

thioredoxin reductase = biological target: T1, thioredoxin reductase (Homo sapiens, UniProt Q16881); details: cited from earlier work
T1 sequence (Q16881 151-649 limits assumed): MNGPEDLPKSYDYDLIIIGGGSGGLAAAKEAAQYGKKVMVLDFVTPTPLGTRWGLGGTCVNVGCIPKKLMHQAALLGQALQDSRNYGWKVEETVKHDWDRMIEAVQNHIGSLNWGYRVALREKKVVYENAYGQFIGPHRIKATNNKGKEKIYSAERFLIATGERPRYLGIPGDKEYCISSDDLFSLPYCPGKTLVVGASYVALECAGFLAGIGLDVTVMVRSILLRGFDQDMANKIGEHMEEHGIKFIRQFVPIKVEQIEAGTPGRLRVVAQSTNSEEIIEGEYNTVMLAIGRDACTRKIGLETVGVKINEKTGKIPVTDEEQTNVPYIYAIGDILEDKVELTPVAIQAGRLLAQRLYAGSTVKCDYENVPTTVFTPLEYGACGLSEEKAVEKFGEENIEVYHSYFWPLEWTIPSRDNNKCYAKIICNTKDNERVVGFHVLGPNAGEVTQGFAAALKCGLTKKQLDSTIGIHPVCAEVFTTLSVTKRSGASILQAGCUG

A431 cells [3] = assay: Mitochondrial reactive oxygen species generation during photodynamic irradiation, MitoSOX flow cytometry; format: cell-based, human; details: MAL 1 mM + co-treatment 10 μM, 3 hours, irradiated
Outline: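 A431 cells received AP39-C10 (10, 100 or 1000 nM) for 5 h, MAL (1 mM) for 3 h and MitoSOX (2.5 μM) for 1 h, then were irradiated for 5 min (630 nm, 25 J/cm^2). Mitochondrial oxidant production was read immediately as MitoSOX fluorescence by flow cytometry and expressed as percent of untreated controls.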

In the case of O=[N+]([O-])c1ccc(Cl)c([N+](=O)[O-])c1 [DNCB, 1-chloro-2,4-dinitrobenzene], the “modes of cell death” value (A431 cells [1]; 1 mM MAL + DNCB 10 μM or auranofin 100 nM + irradiation, compared to MAL and irradiation, FIG. 10) is reported as “primarily increased necrotic cell death”, the cell death (A431 cells [1]; 1 mM MAL + co-treatment 10 μM, 3 h, irradiation) is reported as 46.3±4.0% and 43.8±3.9% and the “potentiating effect on MAL photodynamic cell killing” value (A431 cells [1]; summary of Examples 2A, 3A) is reported as “mild potentiating effect”. The “cell viability, percentage of untreated control” value (shortened to “cell viability, percentage”) (A431 cells [2]; 1 μM with 1 mM MAL, 3 hours) was 97.4±6.9%, the “cell viability, percentage” value (A431 cells [2]; 5 μM with 1 mM MAL, 3 hours) was 99.4±7.3% and the “cell viability, percentage” value (A431 cells [2]; 10 μM with 1 mM MAL, 3 hours) was 98.6±6.2%. The “cell viability, percentage” value (A431 cells [2]; 25 μM with 1 mM MAL, 3 hours) was 79.0±4.3%, the “cell viability, percentage” value (A431 cells [2]; 50 μM with 1 mM MAL, 3 hours) was 57.7±1.4% and the “cell viability, percentage” value (A431 cells [2]; 50 μM, 24 hours) was 11.7±0.8%. For the same molecule, the “cell viability, percentage” value (A431 cells [2]; 100 μM, 24 hours) was 14.8±4.2%, the “concentration up to which well tolerated / no cytotoxicity” value (A431 cells [2]; 24 hours) was “up to 10 μM” and the “inactivation of reduced thioredoxin reductase” value (thioredoxin reductase; 50 nM reduced enzyme, 5 minutes incubation with 100 μM DNCB, presence of NAD(P)H) was “Complete inactivation”. The “inactivation of thioredoxin reductase faster than the alkylation of GSH” value (thioredoxin reductase) was ~10,000 fold and the “MitoSOX fluorescence, percentage of untreated cells” value (A431 cells [3]) was 209.5±3.2%.
